Values of other authors as cited in US20040162333A1, “Rapid absorption selective 5-HT agonist formulations” (priority 2003, published 2004).

details: commercially available oral triptans

Time to Peak Effect (Tmax) [h] | Structure (SMILES)
2.5 | CNS(=O)(=O)Cc1ccc2[nH]cc(CCN(C)C)c2c1 [Sumatriptan]
2 to 3 | CNS(=O)(=O)CCc1ccc2[nH]cc(C3CCN(C)CC3)c2c1 [Naratriptan (Amerge), Naratriptan]
2 | CN(C)CCc1c[nH]c2ccc(C[C@H]3COC(=O)N3)cc12 [Zolmitriptan (Zomig), Zolmitriptan]
1 to 3 | CN(C)CCc1c[nH]c2ccc(CS(=O)(=O)N3CCCC3)cc12 [Almotriptan (Axert), Almotriptan]
2 to 4 | CN[C@@H]1CCc2[nH]c3ccc(C(N)=O)cc3c2C1 [Frovatriptan (Frova), Frovatriptan]
1 to 1.5 | CN(C)CCc1c[nH]c2ccc(Cn3cncn3)cc12 [Rizatriptan (Maxalt), Rizatriptan]
